Values of other authors as cited in PMC5852172, “Characterization of antimicrobial and hemolytic properties of short synthetic cationic lipopeptides based on QSAR/QSTR approach” (Amino Acids, 2017).

Assays:
[1] = tested on: Staphylococcus aureus (ATCC 25923); details: minimum inhibitory concentration, CLSI procedure, S. aureus ATCC 25923; ref [1] Greber et al. 2017
Source text: Supplement 726_2017_2530_MOESM1_ESM.docx, table 1: Table 1S. Antimicrobial activity toward Gram-positive strains and toxicity toward human red blood cells. | column: Staphylococcus aureus

[2] = tested on: S. epidermidis (PCM 2118); details: minimum inhibitory concentration, CLSI procedure, ref [1] Greber et al. 2017
Source text: Supplement 726_2017_2530_MOESM1_ESM.docx, table 1: Table 1S. Antimicrobial activity toward Gram-positive strains and toxicity toward human red blood cells. | column: Staphylococcus epidermidis

[3] = tested on: Bacillus subtilis (ATCC 6633); details: minimum inhibitory concentration, CLSI procedure, B. subtilis ATCC 6633; ref [1] Greber et al. 2017
Source text: Supplement 726_2017_2530_MOESM1_ESM.docx, table 1: Table 1S. Antimicrobial activity toward Gram-positive strains and toxicity toward human red blood cells. | column: Bacillus subtillis

[4] = tested on: Enterococcus faecalis (ATCC 29212); details: minimum inhibitory concentration, CLSI procedure, E. faecalis ATCC 29212; ref [1] Greber et al. 2017
Source text: Supplement 726_2017_2530_MOESM1_ESM.docx, table 1: Table 1S. Antimicrobial activity toward Gram-positive strains and toxicity toward human red blood cells. | column: Enterococcus fecalis

human red blood cells = details: lowest concentration of lipopeptide inducing 10% hemolysis of human red blood cells; ref [1] Greber et al. 2017
Source text: Supplement 726_2017_2530_MOESM1_ESM.docx, table 1: Table 1S. Antimicrobial activity toward Gram-positive strains and toxicity toward human red blood cells. | column: Haemolysis

| Substance | Staphylococcus aureus MIC [1] | Staphylococcus epidermidis MIC [2] | Bacillus subtillis MIC [3] | Enterococcus fecalis MIC [4] | Haemolysis MHC (human red blood cells) |
| --- | --- | --- | --- | --- | --- |
| C16-KKK-NH2 | 8 µg/mL | 4 µg/mL | 8 µg/mL | 16 µg/mL | 32 µg/mL |
| C16-KKKK-NH2 | 4 µg/mL | 4 µg/mL | 4 µg/mL | 16 µg/mL | 16 µg/mL |
| C16-KK-NH2 | 8 µg/mL | 4 µg/mL | 4 µg/mL | 8 µg/mL | 256 µg/mL |
